# Assay results from patent publication US11554171B2, “Compounds and methods for the targeted degradation of bromodomain-containing proteins” (Arvinas Operations, Inc., priority 2015, dated 2023).
# Tested on: c-myc in 22RV-1 cells
# Assay: Human c-myc ELISA assay
# Type: cell-based
# Settings: Homo sapiens; for Emax: 22Rv1, 18 h, read-out: Degradation of BRD4: Maximum inhibition (%) c-Myc ELISA in 22RV1 cells; for DC50: 22Rv1, read-out: Degradation of BRD4: DC50 (uM) c-Myc ELISA in 22RV1 cells
# Procedure: 22RV-1 cells are seeded at 30,000 cells/well at a volume of 75 μL/well in RPMI+10% FBS media in 96-well plates and grown overnight at 37 C. Cells are dosed with compounds at 4× concentration diluted in 0.4% DMSO; compounds are serially diluted 1:3 for 8-point dose curve. 25 ul of compounds is added to cells for a final concentration starting at 300 nM-0.3 nM or 1 uM-1 nM in 0.1% DMSO and incubated for 18 hrs. Media is aspirated, cells washed 1× with PBS and aspirated. Cells are lysed in 50 ul RIPA buffer (50 mM Tris pH8, 150 mM NaCl, 1% Tx-100, 0.1% SDS, 0.5% sodium deoxycholate) supplemented with protease and phosphatase inhibitors. Plates are incubated on ice for 15 minutes then centrifuged at 4 C for 10 min at 4000 rpm. Add 50 ul of cleared lysate from 96-well assay plate into 96-well c-myc ELISA plate (Novex, Life Technologies Catalog #KH02041). Reconstitute c-myc standard with standard diluent buffer; standard curve range is 333 pg/ml-0 pg/ml, diluted 1:2 for 8-point dose curve. The rest of the assay was performed following the protocol from the c-myc ELISA kit. Data is analyzed and plotted using GraphPad Prism software. Compounds described in this application were assayed and c-myc suppression potency is listed in the following Table (A: DC50<10 nM; B: DC50 10-100 nM; C: DC50: 100-1000 nM; D: DC50>1000 nM)
DC50 [µM],Structure (SMILES),Emax [%]
0.1 to 1,"Cc1ncsc1-c1ccc(CNC(=O)[C@@H]2C[C@@H](O)CN2C(=O)[C@@H](NC(=O)COCCOCCOCCCOCCOCCN(C)C(=O)C[C@@H]2N=C(c3ccc(Cl)cc3)c3c(sc(C)c3C)-n3c(C)nnc32)C(C)(C)C)cc1 [Example 17, (2S,4R)-1-[(2S)-2-(18-{2-[(9S)-7-(4-chlorophenyl)-4,5,13-trimethyl-3-thia-1,8,11,12-tetraazatricyclo[8.3.0.0^2,^6]trideca-2(6),4,7,10,12-pentaen-9-yl]-N-methylacetamido}-3,6,9,13,16-pentaoxaoctadecanamido)-3,3-dimethylbutanoyl]-4-hydroxy-N-{[4-(4-methyl-1,3-thiazol-5-yl)phenyl]methyl}pyrrolidine-2-carboxamide]",85
> 1,Cc1ncsc1-c1ccc(CNC(=O)[C@@H]2C[C@H](O)CN2C(=O)[C@@H](NC(=O)COCCCOCCCOc2ccc(NC(=O)C[C@@H]3N=C(c4ccc(Cl)cc4)c4c(sc(C)c4C)-n4c(C)nnc43)cc2)C(C)(C)C)cc1 [Example 18],39
0.01 to 0.1,Cc1ncsc1-c1ccc(CNC(=O)[C@@H]2C[C@@H](O)CN2C(=O)[C@@H](NC(=O)COCCCOCCCOc2ccc(NC(=O)C[C@@H]3N=C(c4ccc(Cl)cc4)c4c(sc(C)c4C)-n4c(C)nnc43)cc2F)C(C)(C)C)cc1 [Example 19],92
0.01 to 0.1,Cc1ncsc1-c1ccc(CNC(=O)[C@@H]2C[C@@H](O)CN2C(=O)[C@@H](NC(=O)COCCCOCCCOc2ccc(NC(=O)C[C@@H]3N=C(c4ccc(Cl)cc4)c4c(sc(C)c4C)-n4c(C)nnc43)c(F)c2)C(C)(C)C)cc1 [Example 20],94
0.01 to 0.1,"Cc1ncsc1-c1ccc(CNC(=O)[C@@H]2C[C@@H](O)CN2C(=O)[C@@H](NC(=O)COCCCOc2ccc(-c3cnc(NC(=O)C[C@@H]4N=C(c5ccc(Cl)cc5)c5c(sc(C)c5C)-n5c(C)nnc54)cn3)cc2)C(C)(C)C)cc1 [Example 21, (2S,4R)-1-[(2S)-2-(2-{3-[4-(5-{2-[(9S)-7-(4-chlorophenyl)-4,5,13-trimethyl-3-thia-1,8,11,12-tetraazatricyclo[8.3.0.0^2,^6]trideca-2(6),4,7,10,12-pentaen-9-yl]acetamido}pyrazin-2-yl)phenoxy]propoxy}acetamido)-3,3-dimethylbutanoyl]-4-hydroxy-N-{[4-(4-methyl-1,3-thiazol-5-yl)phenyl]methyl}pyrrolidine-2-carboxamide]",91
0.01 to 0.1,Cc1ncsc1-c1ccc(CNC(=O)[C@@H]2C[C@@H](O)CN2C(=O)[C@@H](NC(=O)COCCCOc2ccc(-c3cnc(NC(=O)C[C@@H]4N=C(c5ccc(Cl)cc5)c5c(sc(C)c5C)-n5c(C)nnc54)cn3)cc2F)C(C)(C)C)cc1 [Example 22],94
0.01 to 0.1,Cc1ncsc1-c1ccc(CNC(=O)[C@@H]2C[C@@H](O)CN2C(=O)[C@@H](NC(=O)COCCCOc2ccc(-c3ccc(NC(=O)C[C@@H]4N=C(c5ccc(Cl)cc5)c5c(sc(C)c5C)-n5c(C)nnc54)cn3)cc2F)C(C)(C)C)cc1 [Example 23],91
0.01 to 0.1,Cc1ncsc1-c1ccc(CNC(=O)[C@@H]2C[C@@H](O)CN2C(=O)[C@@H](NC(=O)COCCCOc2ccc(-c3ccc(NC(=O)C[C@@H]4N=C(c5ccc(Cl)cc5)c5c(sc(C)c5C)-n5c(C)nnc54)c(F)c3)nc2)C(C)(C)C)cc1 [Example 24],87.5
0.01 to 0.1,"Cc1ncsc1-c1ccc(CNC(=O)[C@@H]2C[C@@H](O)CN2C(=O)[C@@H](NC(=O)COCCCOCCCOc2ccc([C@H](C)NC(=O)C[C@@H]3N=C(c4ccc(Cl)cc4)c4c(sc(C)c4C)-n4c(C)nnc43)cc2)C(C)(C)C)cc1 [Example 25, (2S,4R)-1-[(2S)-2-{2-[3-(3-{4-[(1S)-1-{2-[(9S)-7-(4-chlorophenyl)-4,5,13-trimethyl-3-thia-1,8,11,12-tetraazatricyclo[8.3.0.0^2,^6]trideca-2(6),4,7,10,12-pentaen-9-yl]acetamido}ethyl]phenoxy}propoxy)propoxy]acetamido}-3,3-dimethylbutanoyl]-4-hydroxy-N-{[4-(4-methyl-1,3-thiazol-5-yl)phenyl]methyl}pyrrolidine-2-carboxamide]",100
0.01 to 0.1,"Cc1ncsc1-c1ccc(CNC(=O)[C@@H]2C[C@@H](O)CN2C(=O)[C@@H](NC(=O)COCCCOCCCOc2ccc(C3(NC(=O)C[C@@H]4N=C(c5ccc(Cl)cc5)c5c(sc(C)c5C)-n5c(C)nnc54)CC3)cc2)C(C)(C)C)cc1 [Example 27, (2S,4R)-1-[(2S)-2-[2-(3-{3-[4-(1-{2-[(9S)-7-(4-chlorophenyl)-4,5,13-trimethyl-3-thia-1,8,11,12-tetraazatricyclo[8.3.0.0^2,^6]trideca-2(6),4,7,10,12-pentaen-9-yl]acetamido}cyclopropyl)phenoxy]propoxy}propoxy)acetamido]-3,3-dimethylbutanoyl]-4-hydroxy-N-{[4-(4-methyl-1,3-thiazol-5-yl)phenyl]methyl}pyrrolidine-2-carboxamide]",100
0.01 to 0.1,Cc1ncsc1-c1ccc(CNC(=O)[C@@H]2C[C@@H](O)CN2C(=O)[C@@H](NC(=O)COCCCOCCCOc2ccc(NC(=O)C[C@@H]3N=C(c4ccc(Cl)cc4)c4c(sc(C)c4C)-n4c(C)nnc43)nc2)C(C)(C)C)cc1 [Example 28],100
0.01 to 0.1,Cc1ncsc1-c1ccc(CNC(=O)[C@@H]2C[C@@H](O)CN2C(=O)[C@@H](NC(=O)COCCOCCCOc2ccc([C@@H](C)NC(=O)C[C@@H]3N=C(c4ccc(Cl)cc4)c4c(sc(C)c4C)-n4c(C)nnc43)cc2)C(C)(C)C)cc1 [Example 29],96.8
0.01 to 0.1,Cc1ncsc1-c1ccc([C@H](C)NC(=O)[C@@H]2C[C@@H](O)CN2C(=O)[C@@H](NC(=O)COCCOCCCOc2ccc([C@@H](C)NC(=O)C[C@@H]3N=C(c4ccc(Cl)cc4)c4c(sc(C)c4C)-n4c(C)nnc43)cc2)C(C)(C)C)cc1 [Example 30],96
0.1 to 1,Cc1ncoc1-c1ccc(CNC(=O)[C@@H]2C[C@@H](O)CN2C(=O)[C@@H](NC(=O)COCCOCCCOc2ccc([C@@H](C)NC(=O)C[C@@H]3N=C(c4ccc(Cl)cc4)c4c(sc(C)c4C)-n4c(C)nnc43)cc2)C(C)(C)C)cc1 [Example 31],65
0.01 to 0.1,Cc1ncsc1-c1ccc([C@H](C)NC(=O)[C@@H]2C[C@@H](O)CN2C(=O)[C@@H](NC(=O)COCCOCCCOc2ccc([C@H](C)NC(=O)C[C@@H]3N=C(c4ccc(Cl)cc4)c4c(sc(C)c4C)-n4c(C)nnc43)cc2)C(C)(C)C)cc1 [Example 34],99.7
> 1,Cc1ncsc1-c1ccc(CNC(=O)[C@@H]2C[C@@H](O)CN2C(=O)[C@@H](NC(=O)COCCn2ccc(-c3ccc([C@@H](C)NC(=O)C[C@@H]4N=C(c5ccc(Cl)cc5)c5c(sc(C)c5C)-n5c(C)nnc54)cc3)cc2=O)C(C)(C)C)cc1 [Example 35],37
0.01 to 0.1,"Cc1ncsc1-c1ccc(CNC(=O)[C@@H]2C[C@@H](O)CN2C(=O)[C@@H](NC(=O)COCCOc2cc(-c3ccc([C@@H](C)NC(=O)C[C@@H]4N=C(c5ccc(Cl)cc5)c5c(sc(C)c5C)-n5c(C)nnc54)cc3)ccn2)C(C)(C)C)cc1 [Example 36, (2S,4R)-1-[(2S)-2-(2-{2-[(4-{4-[(1R)-1-{2-[(9S)-7-(4-chlorophenyl)-4,5,13-trimethyl-3-thia-1,8,11,12-tetraazatricyclo[8.3.0.0^2,^6]trideca-2(6),4,7,10,12-pentaen-9-yl]acetamido}ethyl]phenyl}pyridin-2-yl)oxy]ethoxy}acetamido)-3,3-dimethylbutanoyl]-4-hydroxy-N-{[4-(4-methyl-1,3-thiazol-5-yl)phenyl]methyl}pyrrolidine-2-carboxamide]",97
0.01 to 0.1,Cc1ncsc1-c1ccc(CNC(=O)[C@@H]2C[C@@H](O)CN2C(=O)[C@@H](NC(=O)COCCCOCCCOc2ccc(C(C)(C)NC(=O)C[C@@H]3N=C(c4ccc(Cl)cc4)c4c(sc(C)c4C)-n4c(C)nnc43)cc2)C(C)(C)C)cc1 [Example 37],96
0.01 to 0.1,Cc1ncsc1-c1ccc(CNC(=O)[C@@H]2C[C@@H](O)CN2C(=O)[C@@H](NC(=O)COCCOCCOCCOCCNC(=O)C[C@@H]2N=C(c3ccc(Cl)cc3)c3c(sc(C)c3C)-n3c(C)nnc32)C(C)(C)C)cc1 [Example 38],94

Structure (SMILES),DC50 [µM],Emax [%]
"Cc1ncsc1-c1ccc(CNC(=O)[C@@H]2C[C@@H](O)CN2C(=O)[C@@H](NC(=O)COCCCCn2cc(-c3ccc([C@@H](C)NC(=O)C[C@@H]4N=C(c5ccc(Cl)cc5)c5c(sc(C)c5C)-n5c(C)nnc54)cc3)cn2)C(C)(C)C)cc1 [Example 33, (2S,4R)-1-[(2S)-2-{2-[4-(4-{4-[(1R)-1-{2-[(9S)-7-(4-chlorophenyl)-4,5,13-trimethyl-3-thia-1,8,11,12-tetraazatricyclo[8.3.0.0^2,^6]trideca-2(6),4,7,10,12-pentaen-9-yl]acetamido}ethyl]phenyl}-1H-pyrazol-1-yl)butoxy]acetamido}-3,3-dimethylbutanoyl]-4-hydroxy-N-{[4-(4-methyl-1,3-thiazol-5-yl)phenyl]methyl}pyrrolidine-2-carboxamide]",0.01 to 0.1,100
